From patent US9145419B2, “Imidazopyridazinyl compounds” (Bristol-Myers Squibb Company, priority 2010, dated 2015)

Test system: testosterone levels
Assay: 1-Day Cyno PK/PD study
Format: in vivo
Settings: cynomolgus monkeys, single oral dose 3 mg/Kg in 80% PEG-400/water, plasma, over 24 hour period
Method: 1-Day Cyno PK/PD Study Protocol
Animals: All procedures involving animals and their care were conducted in conformity with the guidelines that are in compliance with the Bristol-Myers Squibb Institutional Animal Care and Use Committee. Fully mature male cynomolgus monkeys (>4 yrs of age; 5-6 kg) were from an in-house colony. All the monkeys used had chronically implanted femoral vein access ports. For oral studies, all animals were fasted overnight prior to dosing and were fed 4 hr after dosing. All animals had free access to water and were conscious throughout the study.
Drug: For all oral pharmacokinetic studies in cynomolgus monkeys, the tested compound was formulated in polyethylene glycol (PEG 400): water (80:20, v:v) at concentrations of 1-5 mg/mL. […]
Sampling: Blood samples were collected from the femoral port, at 15, 30, and 45 min, and 1, 2, 4, 6, 8, 12, 24, 30, and 48 hr after oral administration. […] The plasma fraction was immediately separated by centrifugation (14,000 rpm, 10 min, 4° C.), frozen on dry ice, and stored at −20° C. until the samples were analyzed.
Analysis of Tested Compound: Plasma samples were thawed and treated with two volumes of acetonitrile containing internal standard. After centrifugation to remove precipitated proteins, an aliquot of supernatant was analyzed by LC/MS/MS. […]

Row | Compound | testosterone levels [ng/dL]
1 | Cc1ccncc1-c1ccnn2c(-c3ccc(F)cc3)cnc12 [Example 7, 3-(4-fluorophenyl)-8-(4-methylpyridin-3-yl)imidazo[1,2-b]pyridazine] | ~15

Target: Human CYP17 (Homo sapiens (Human), UniProt P05093)
Sequence (P05093 whole entry): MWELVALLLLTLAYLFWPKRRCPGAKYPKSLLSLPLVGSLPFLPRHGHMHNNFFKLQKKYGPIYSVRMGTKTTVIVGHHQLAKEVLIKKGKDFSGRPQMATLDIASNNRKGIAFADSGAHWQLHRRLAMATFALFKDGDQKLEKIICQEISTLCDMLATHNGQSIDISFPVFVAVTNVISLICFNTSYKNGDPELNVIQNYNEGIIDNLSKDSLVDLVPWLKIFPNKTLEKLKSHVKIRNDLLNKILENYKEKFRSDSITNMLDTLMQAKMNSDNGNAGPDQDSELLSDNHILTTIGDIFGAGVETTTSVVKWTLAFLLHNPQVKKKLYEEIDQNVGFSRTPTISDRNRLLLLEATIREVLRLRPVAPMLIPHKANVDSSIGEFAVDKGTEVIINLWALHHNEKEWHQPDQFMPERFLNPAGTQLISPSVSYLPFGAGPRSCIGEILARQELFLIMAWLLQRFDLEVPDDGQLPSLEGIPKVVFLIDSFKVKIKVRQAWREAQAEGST
Assay: CYP17 Total SPA assay
Format: biochemical
Settings: microsomes from HEK2 cells stably transfected with CYP17; 3H-Pregnenolone 1 uM, NADPH 2 mM
Method: The assays were performed in U-bottom 384-well optiplates. The final assay volume was 15 μl prepared from 7.5 μl additions of microsomes (prepared as a high-speed pellet from homogenized HEK2 cells stably transfected with CYP17), substrates (3H-Pregnenolone and NADPH) and test compounds in assay buffer (50 mM Potassium phosphate pH 7.2, 10% glycerol). The reaction was initiated by the combination of the microsomes and substrates in wells containing compound. The reaction was incubated at room temperature for 45 minutes and terminated by adding 7.5 μl of 0.2N HCl to each well. Following an incubation period of 10 minutes, anti-DHEA-coated SPA beads were added to the terminated reaction. The plate was sealed and incubated overnight with shaking at 4° C. The beads were allowed to settle in the plate for 1 hour and the plate read on a TOPCOUNT® (Perkin-Elmer) plate reader.
Inhibition data were calculated by comparison to no enzyme control reactions for 100% inhibition and vehicle-only reactions for 0% inhibition. The final concentration of reagents in the assays are NADPH, 2 mM; 3H-Pregnenolone, 1 uM; microsomes, 1.25 ug/ml; Anti-DHEA-SPA beads (0.125 mg/well) in 0.5% Triton X-100 and DMSO, 0.05%. Dose response curves were generated to determine the concentration required inhibiting 50% of enzyme activity (IC50). Compounds were dissolved at 10 mM in dimethylsulfoxide (DMSO) and evaluated at eleven concentrations, each in duplicate. IC50 values were derived by non-linear regression analysis.

Row | Compound | IC50 [nM]
2 | Cc1ccncc1-c1ccnn2c(-c3ccccc3)cnc12 [Example 1, 8-(4-Methylpyridin-3-yl)-3-phenylimidazo[1,2-b]pyridazine] | 41
3 | COc1ccccc1-c1cnc2c(-c3cnccc3C)ccnn12 [Example 3, 3-(2-Methoxyphenyl)-8-(4-methylpyridin-3-yl)imidazo[1,2-b]pyridazine] | 16
4 | Cc1ccncc1-c1ccnn2c(-c3ccc(F)cc3)cnc12 [Example 7, 3-(4-fluorophenyl)-8-(4-methylpyridin-3-yl)imidazo[1,2-b]pyridazine] | 56
5 | Cc1cccc(-c2cnc3c(-c4cnccc4C)ccnn23)c1 [Example 9, 8-(4-methylpyridin-3-yl)-3-m-tolylimidazo[1,2-b]pyridazine] | 120
6 | Cc1ccncc1-c1ccnn2c(-c3cccc(Cl)c3)cnc12 [Example 11, 3-(3-chlorophenyl)-8-(4-methylpyridin-3-yl)imidazo[1,2-b]pyridazine] | 97
7 | Fc1ccc(-c2cnc3c(-c4cccnc4)ccnn23)cc1 [Example 26, 3-(4-fluorophenyl)-8-(pyridin-3-yl)imidazo[1,2-b]pyridazine] | 524
8 | Cc1ccncc1-c1ccnn2c(-c3cc(Cl)cc(Cl)c3)cnc12 [Example 34, 3-(3,5-dichlorophenyl)-8-(4-methylpyridin-3-yl)imidazo[1,2-b]pyridazine] | 664
9 | Cc1ccncc1-c1ccnn2c(-c3cccs3)cnc12 [Example 35, 8-(4-methylpyridin-3-yl)-3-(thiophen-2-yl)imidazo[1,2-b]pyridazine] | 9
10 | Cc1ccncc1-c1ccnn2c(-c3cccc(C(F)(F)F)c3)cnc12 [Example 37, 8-(4-methylpyridin-3-yl)-3-(3-(trifluoromethyl)phenyl)imidazo[1,2-b]pyridazine] | 129
11 | Cc1cc(C)cc(-c2cnc3c(-c4cnccc4C)ccnn23)c1 [Example 38, 3-(3,5-dimethylphenyl)-8-(4-methylpyridin-3-yl)imidazo[1,2-b]pyridazine] | 279
